According to patent publication US20250275959A1, “COMPOUNDS AND METHODS OF THEIR USE” (LEXICON PHARMACEUTICALS, INC., priority 2024, published 2025):

Assays:
[1] = target: T1, hACSL5 (Homo sapiens (Human), UniProt Q9ULC5); experiment: Cell-based assay (CBA) with B12FA in hACSL5-transfected Expi293F / FlpIn TRex293 cells; conditions: hACSL5-expressing cells
Text: To assess the cell penetration and cellular activity of the compounds, a cell-based assay (CBA) was used to detect compound potency in living cells. The assay utilized the fluorescent fatty acid analogue B12FA, a boron-dipyrromethene (BODIPY™) labelled C12 fatty acid that can be incorporated into glycerophosphocholine in the cytoplasmic oil droplets of live cells. A concentration-dependent, red-shifted fluorescence can be induced by the formation of BODIPY™ excimers in the oil droplets.
Expi293F cells transfected with full length hACSL5 plasmid were selected using 1 mg/mL G418 culture medium and clones were selected by in vitro whole cell lysate (WCL) assay. The cell passage number used in the Expi293 CBA assay could not be used beyond 10 passages due to a decrease in hACSL5 expression. Therefore, a CBA using FlpIn TRex293 cells for inducible expression of hACSL5 was also established.
FlpIn TRex293 cells transfected with hACSL5 plasmid were selected in culture medium containing 15 µg/ml Blasticidin and 150 µg/ml Hygromycin. For cell-based assays, stable transfected hACSL5 cells were seeded onto a 96-well plate at 30-50k/well and incubated overnight. For the inducible system, […] tetracycline (or doxycycline) was added to culture medium of FlpIn TRex293 hACSL5 cells on the day before the assay to induce expression of hACSL5. The next day, growth media was replaced with culture medium without FBS and glucose (DMEM glucose (-), ThermoFisher) and cells were incubated for an hour before treating cells with serial diluted compounds containing 20 µM B12FA (ThermoFisher) for another 3 hours in the above medium. Cells were then fixed in 4% formaldehyde for 10 minutes and washed twice with PBS. The plate was read using the Cytation 5 imaging system with an excitation wavelength of 485 nm and observed emissions at 630 nm and 520 nm. The percentage of inhibition was calculated as: […]
wherein A is the ratio of emission intensities at 630 nm/520 nm in the absence of inhibitor (maximum ratio); B is the ratio of the intensities at those wavelengths in the presence of […] of the test compound or non-induced cells (minimum ratio); and X is the ratio of the intensities at a given compound concentration.
Concentration-response titration points for each compound tested were filled to the Hill equation yielding concentrations of half maximal inhibition […] and maximal inhibition values.
Target sequence in this assay (Q9ULC5 whole entry): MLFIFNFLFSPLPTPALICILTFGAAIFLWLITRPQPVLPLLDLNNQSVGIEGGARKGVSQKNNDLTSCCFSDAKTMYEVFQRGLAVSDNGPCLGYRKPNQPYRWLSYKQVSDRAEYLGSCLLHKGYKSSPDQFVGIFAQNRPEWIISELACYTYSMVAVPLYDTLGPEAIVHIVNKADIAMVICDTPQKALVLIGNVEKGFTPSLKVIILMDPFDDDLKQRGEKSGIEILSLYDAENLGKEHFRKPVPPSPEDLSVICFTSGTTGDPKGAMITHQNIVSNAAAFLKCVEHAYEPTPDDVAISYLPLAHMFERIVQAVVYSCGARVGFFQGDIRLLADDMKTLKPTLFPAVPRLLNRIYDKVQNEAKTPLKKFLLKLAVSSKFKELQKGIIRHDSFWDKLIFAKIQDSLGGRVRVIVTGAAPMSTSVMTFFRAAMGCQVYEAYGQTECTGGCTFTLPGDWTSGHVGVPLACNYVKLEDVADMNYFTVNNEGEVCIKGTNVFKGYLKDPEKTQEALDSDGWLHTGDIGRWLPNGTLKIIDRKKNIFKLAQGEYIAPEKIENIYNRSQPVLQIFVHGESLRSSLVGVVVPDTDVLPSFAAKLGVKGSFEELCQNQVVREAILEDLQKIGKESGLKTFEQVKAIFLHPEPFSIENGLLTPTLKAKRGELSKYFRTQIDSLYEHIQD

[2] = target: T1, hACSL5; experiment: Human ACSL5 coupled enzyme Amplex Red assay; assay type: biochemical; conditions: read-out: hACSL5 IC50
Procedure, shortened: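 Amplex Red coupled readout: 1 mM ATP, 25 μM oleate and 30 μM CoA were added to compound-preincubated enzyme (20 nM, residues 33-683, insect-cell expressed, His-tagged) with coupling peroxidase and acyl-CoA oxidase at pH 7.6. Signal was read at 535/590 nm after 10 minutes at 25° C., and Hill fits yielded half-maximal and maximal inhibition.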
Target sequence in this assay (Q9ULC5 33-683): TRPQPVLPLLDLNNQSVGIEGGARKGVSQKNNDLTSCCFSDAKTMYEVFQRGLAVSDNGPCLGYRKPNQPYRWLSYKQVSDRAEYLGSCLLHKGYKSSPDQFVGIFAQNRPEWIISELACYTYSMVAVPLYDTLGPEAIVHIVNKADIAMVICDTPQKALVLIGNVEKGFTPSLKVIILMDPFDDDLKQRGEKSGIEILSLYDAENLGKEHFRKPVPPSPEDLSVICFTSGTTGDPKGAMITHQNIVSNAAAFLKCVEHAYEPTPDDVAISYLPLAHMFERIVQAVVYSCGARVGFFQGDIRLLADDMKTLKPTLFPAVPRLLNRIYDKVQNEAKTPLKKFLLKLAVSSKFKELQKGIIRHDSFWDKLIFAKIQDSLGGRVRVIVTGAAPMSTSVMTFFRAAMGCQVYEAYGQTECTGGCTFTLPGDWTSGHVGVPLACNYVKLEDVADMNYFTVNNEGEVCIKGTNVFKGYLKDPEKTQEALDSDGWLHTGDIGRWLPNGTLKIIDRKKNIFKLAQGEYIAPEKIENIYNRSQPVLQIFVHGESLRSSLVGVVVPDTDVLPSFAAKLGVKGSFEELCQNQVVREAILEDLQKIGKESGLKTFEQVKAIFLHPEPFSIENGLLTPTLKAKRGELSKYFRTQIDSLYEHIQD

IC50 [1]	IC50 [2]	SMILES
100 to 500 nM	< 100 nM	CC[C@@H](Oc1ccc(C(=O)NS(=O)(=O)c2ccc(OC3CCN(C(C)C)CC3)cc2)c(F)c1F)c1ccc(OCC2CC2)cn1 [(R)-4-(1-(5-(cyclopropylmethoxy)pyridin-2-yl)propoxy)-2,3-difluoro-N-((4-((1-isopropylpiperidin-4-yl)oxy)phenyl)sulfonyl)benzamide]
100 to 500 nM	< 100 nM	CC[C@@H](Oc1ccc(C(=O)NS(=O)(=O)c2ccc(OC3CN(C)C3)cc2)c(F)c1F)c1ccc(OCC2CC2)cn1 [(R)-4-(1-(5-(cyclopropylmethoxy)pyridin-2-yl)propoxy)-2,3-difluoro-N-((4-((1-methylazetidin-3-yl)oxy)phenyl)sulfonyl)benzamide]
< 100 nM	< 100 nM	CC[C@@H](Oc1ccc(C(=O)NS(=O)(=O)c2ccc(OC3CCN(C)CC3)cc2)c(F)c1F)c1ccc(OCC2CC2)cn1 [(R)-4-(1-(5-(cyclopropylmethoxy)pyridin-2-yl)propoxy)-2,3-difluoro-N-((4-((1-methylpiperidin-4-yl)oxy)phenyl)sulfonyl)benzamide]
100 to 500 nM	< 100 nM	CC[C@@H](Oc1ccc(C(=O)NS(=O)(=O)N2CCC(OC3CCN(C)CC3)CC2)c(F)c1F)c1ccc(OCC2CC2)cn1 [(R)-4-(1-(5-(cyclopropylmethoxy)pyridin-2-yl)propoxy)-2,3-difluoro-N-((4-((1-methylpiperidin-4-yl)oxy)piperidin-1-yl)sulfonyl)benzamide]
> 500 nM	< 100 nM	CC[C@@H](Oc1ccc(C(=O)NS(=O)(=O)c2ccc(OC3CCNCC3)cc2)c(F)c1F)c1ccc(OCC2CC2)cn1 [(R)-4-(1-(5-(cyclopropylmethoxy)pyridin-2-yl)propoxy)-2,3-difluoro-N-((4-(piperidin-4-yloxy)phenyl)sulfonyl)benzamide]
100 to 500 nM	100 to 500 nM	CC[C@@H](Oc1ccc(C(=O)NS(=O)(=O)N2CCN(C(C)C)CC2)c(F)c1F)c1ccc(OCC2CC2)cn1 [(R)-4-(1-(5-(cyclopropylmethoxy)pyridin-2-yl)propoxy)-2,3-difluoro-N-((4-isopropylpiperazin-1-yl)sulfonyl)benzamide]
100 to 500 nM	100 to 500 nM	CC[C@@H](Oc1ccc(C(=O)NS(=O)(=O)N2CCCN(C)CC2)c(F)c1F)c1ccc(OCC2CC2)cn1 [(R)-4-(1-(5-(cyclopropylmethoxy)pyridin-2-yl)propoxy)-2,3-difluoro-N-((4-methyl-1,4-diazepan-1-yl)sulfonyl)benzamide]
< 100 nM	< 100 nM	CC[C@@H](Oc1ccc(C(=O)NS(=O)(=O)N2CCN(C)CC2)c(F)c1F)c1ccc(OCC2CC2)cn1 [(R)-4-(1-(5-(cyclopropylmethoxy)pyridin-2-yl)propoxy)-2,3-difluoro-N-((4-methylpiperazin-1-yl)sulfonyl)benzamide]
> 500 nM	< 100 nM	CC[C@@H](Oc1ccc(C(=O)NS(=O)(=O)c2ccc(NC3CCN(C)CC3)cn2)c(F)c1F)c1ccc(OCC2CC2)cn1 [(R)-4-(1-(5-(cyclopropylmethoxy)pyridin-2-yl)propoxy)-2,3-difluoro-N-((5-((1-methylpiperidin-4-yl)amino)pyridin-2-yl)sulfonyl)benzamide]
> 500 nM	< 100 nM	CC[C@@H](Oc1ccc(C(=O)NS(=O)(=O)c2ccc(OC3CCN(C)CC3)cn2)c(F)c1F)c1ccc(OCC2CC2)cn1 [(R)-4-(1-(5-(cyclopropylmethoxy)pyridin-2-yl)propoxy)-2,3-difluoro-N-((5-((1-methylpiperidin-4-yl)oxy)pyridin-2-yl)sulfonyl)benzamide]
> 500 nM	< 100 nM	CC[C@@H](Oc1ccc(C(=O)NS(=O)(=O)N2CC3(CC(OCCN4CCCC4)C3)C2)c(F)c1F)c1ccc(OCC2CC2)cn1 [(R)-4-(1-(5-(cyclopropylmethoxy)pyridin-2-yl)propoxy)-2,3-difluoro-N-((6-(2-(pyrrolidin-1-yl)ethoxy)-2-azaspiro[3.3]heptan-2-yl)sulfonyl)benzamide]
> 500 nM	< 100 nM	CC[C@@H](Oc1ccc(C(=O)NS(=O)(=O)c2ccc(OCCN3CCCC3)nn2)c(F)c1F)c1ccc(OCC2CC2)cn1 [(R)-4-(1-(5-(cyclopropylmethoxy)pyridin-2-yl)propoxy)-2,3-difluoro-N-((6-(2-(pyrrolidin-1-yl)ethoxy)pyridazin-3-yl)sulfonyl)benzamide]

Second part, the compound before the results:

SMILES	IC50 [1]	IC50 [2]
CC[C@@H](Oc1ccc(C(=O)NS(=O)(=O)N2CCN(CC(C)(C)F)CC2)c(F)c1F)c1ccc(OCC2CC2)cn1 [(R)-4-(1-(5-(cyclopropylmethoxy)pyridin-2-yl)propoxy)-2,3-difluoro-N-((4-(2-fluoro-2-methylpropyl)piperazin-1-yl)sulfonyl)benzamide]	< 100 nM	< 100 nM
CC[C@@H](Oc1ccc(C(=O)NS(=O)(=O)N2CCN(CC(C)(C)O)CC2)c(F)c1F)c1ccc(OCC2CC2)cn1 [(R)-4-(1-(5-(cyclopropylmethoxy)pyridin-2-yl)propoxy)-2,3-difluoro-N-((4-(2-hydroxy-2-methylpropyl)piperazin-1-yl)sulfonyl)benzamide]	100 to 500 nM	< 100 nM
CC[C@@H](Oc1ccc(C(=O)NS(=O)(=O)N2CCN(CCOC)CC2)c(F)c1F)c1ccc(OCC2CC2)cn1 [(R)-4-(1-(5-(cyclopropylmethoxy)pyridin-2-yl)propoxy)-2,3-difluoro-N-((4-(2-methoxyethyl)piperazin-1-yl)sulfonyl)benzamide]	< 100 nM	< 100 nM
CC[C@@H](Oc1ccc(C(=O)NS(=O)(=O)c2ccc(OCCN3CCOCC3)cc2)c(F)c1F)c1ccc(OCC2CC2)cn1 [(R)-4-(1-(5-(cyclopropylmethoxy)pyridin-2-yl)propoxy)-2,3-difluoro-N-((4-(2-morpholinoethoxy)phenyl)sulfonyl)benzamide]	> 500 nM	< 100 nM
CC[C@@H](Oc1ccc(C(=O)NS(=O)(=O)c2ccc(OC3CCN(CC(C)(C)O)CC3)cc2)c(F)c1F)c1ccc(OCC2CC2)cn1 [(R)-4-(1-(5-(cyclopropylmethoxy)pyridin-2-yl)propoxy)-2,3-difluoro-N-((4-((1-(2-hydroxy-2-methylpropyl)piperidin-4-yl)oxy)phenyl)sulfonyl)benzamide]	100 to 500 nM	< 100 nM
CC[C@@H](Oc1ccc(C(=O)NS(=O)(=O)N2CCC(OC3CCN(CC(C)(C)O)CC3)CC2)c(F)c1F)c1ccc(OCC2CC2)cn1 [(R)-4-(1-(5-(cyclopropylmethoxy)pyridin-2-yl)propoxy)-2,3-difluoro-N-((4-((1-(2-hydroxy-2-methylpropyl)piperidin-4-yl)oxy)piperidin-1-yl)sulfonyl)benzamide]	100 to 500 nM	< 100 nM
CC[C@@H](Oc1ccc(C(=O)NS(=O)(=O)c2ccc(OC3CCN(CCO)CC3)cc2)c(F)c1F)c1ccc(OCC2CC2)cn1 [(R)-4-(1-(5-(cyclopropylmethoxy)pyridin-2-yl)propoxy)-2,3-difluoro-N-((4-((1-(2-hydroxyethyl)piperidin-4-yl)oxy)phenyl)sulfonyl)benzamide]	100 to 500 nM	< 100 nM
CC[C@@H](Oc1ccc(C(=O)NS(=O)(=O)c2ccc(OC3CCN(CCOC)CC3)cc2)c(F)c1F)c1ccc(OCC2CC2)cn1 [(R)-4-(1-(5-(cyclopropylmethoxy)pyridin-2-yl)propoxy)-2,3-difluoro-N-((4-((1-(2-methoxyethyl)piperidin-4-yl)oxy)phenyl)sulfonyl)benzamide]	< 100 nM	< 100 nM
CC[C@@H](Oc1ccc(C(=O)NS(=O)(=O)N2CCC(OC3CCN(CCOC)CC3)CC2)c(F)c1F)c1ccc(OCC2CC2)cn1 [(R)-4-(1-(5-(cyclopropylmethoxy)pyridin-2-yl)propoxy)-2,3-difluoro-N-((4-((1-(2-methoxyethyl)piperidin-4-yl)oxy)piperidin-1-yl)sulfonyl)benzamide]	< 100 nM	< 100 nM
[2H]C([2H])([2H])N1CCC(Oc2ccc(S(=O)(=O)NC(=O)c3ccc(O[C@H](CC)c4ccc(OCC5CC5)cn4)c(F)c3F)cc2)CC1 [(R)-4-(1-(5-(cyclopropylmethoxy)pyridin-2-yl)propoxy)-2,3-difluoro-N-((4-((1-(methyl-d3)piperidin-4-yl)oxy)phenyl)sulfonyl)benzamide]	< 100 nM	< 100 nM
